# Experimental data taken from patent US20150065421A1, “BASAL INSULIN THERAPY” (SANOFI, priority 2012, published 2015).
# Test system: people at high risk for vascular disease with either IFG, IGT, or early type 2 diabetes
# Assay: ORIGIN trial: glycemic control (FPG, A1C)
# Type: in vivo, human
# Source text: Participants were asked to self-administer daily subcutaneous saline injections and to check their capillary glucose levels during a 10 day run-in period. Adherent participants were then provided with lifestyle advice and randomly allocated to either insulin glargine (Lantus™) or standard approaches to glycaemic control. Participants allocated to insulin glargine who were also taking a thiazolidinedione stopped that medication at the time of randomization; otherwise the insulin glargine was added to their glycemic regimen. These participants were instructed to inject insulin glargine in the evening, starting at 2, 4 or 6 units (depending on their initial FPG) and to increase the dose at least once per week targeting a self-measured FPG level ≦5.3 mmol/l (95 mg/dl) and ≧4 mmol/l (72 mg/dl). […] If participants developed uncontrolled hyperglycemia, investigators were permitted to add rapid-acting insulin. No other glucose-lowering medication could be added or increased. FPG levels were measured in the local laboratory at every visit and the results were regularly reviewed along with the dose of insulin to ensure that insulin was being effectively trirated. People not diagnosed with diabetes by the time of the penultimate study visit down-titrated insulin glargine by 10 units per day and stopped any metformin that was prescribed.
# Outcomes and other data were collected at scheduled study visits at 0.5, 1, 2, and 4 months after randomization and every 4 months thereafter. Weight, waist and hip circumference were measured annually. HbA1c levels were assayed in local laboratories at every visit for the first year and then annually in people without diabetes and every 4 months for people with diabetes. A first morning urine collection was sent centrally and assayed for creatinine and albumin at baseline, 2 yrs and study end.
# Participants assigned to standard therapy continued their prior oral therapies and were managed according to the investigators' judgement and local guidelines for glycemic control and therapeutic approaches. Investigators were advised not to prescribe insulin for standard participants unless they were on full doses of 2 or more oral agents. If insulin was added glargine was not to be used. Participants assigned to basal insulin glargine who were taking a thiazolidinedione prior to randomization stopped this medication but continued to take other glucose-lowering agents. Insulin glargine (Lantus®, Sanofi) was added to their regimen starting at 2 to 6 units daily, based on fasting glucose levels. Participants were advised to inject the insulin in the evening and to self-titrate the dosage using a simple algorithm supported by the site investigators. Self-measured, plasma-referenced fasting capillary blood glucose tests were done at least twice-weekly to guide titration, with the goal of achieving and maintaining fasting glucose 5.3 mmol/l (≦95 mg/dl). Other oral agents could be continued, reduced, or discontinued as judged appropriate during treatment with insulin glargine. The only oral agent that could be added (if not previously used) was metformin, which the site investigator initiated for individual participants at doses of 500-1000 mg/day if judged necessary to limit the risk of hypoglycemia. The importance of lifestyle management was continuously reinforced in both treatment groups.
# In addition to self-measured glucose tests, venous blood for measurement of fasting plasma glucose (FPG) and A1C at local laboratories was collected at intervals during treatment. In the case of A1C, measurements were done at baseline, yearly thereafter, and at the end of treatment for all participants. Measurements of FPG were done annually and at the end of treatment for all participants in the glargine treatment group, and at baseline, after 2 years, and at the end of treatment for those using standard therapy. […]
# [1] = fully adjusted logistic regression, glargine vs standard care, p<0.001
# [2] = participants with diabetes, 2 years
# [3] = participants with diabetes, 5 years
# [4] = participants with diabetes, 7 years
# [5] = participants without diabetes, 5 years
# [6] = without diabetes at entry, throughout randomized treatment, both regimens
substance,measurement,setting,value
(Gly A21) Arg (B31) Arg (B32) human insulin [insulin glargine],"A1c (%), median (interquartile range)","Year 1, baseline 6.4","5.9 (5.5, 6.4) %"
same,"FPG (mM), median (interquartile range)","Year 1, baseline 6.9","5.2 (4.6, 5.9) mM"
same,"A1c (%), median (interquartile range)",Year 2,"6.0 (5.5, 6.5) %"
same,"FPG (mM), median (interquartile range)",Year 2,"5.0 (4.4, 5.8) mM"
same,"A1c (%), median (interquartile range)",Year 3,"6.0 (5.6, 6.6) %"
same,"FPG (mM), median (interquartile range)",Year 3,"5.0 (4.4, 5.7) mM"
same,"A1c (%), median (interquartile range)",Year 4,"6.1 (5.7, 6.7) %"
same,"FPG (mM), median (interquartile range)",Year 4,"5.1 (4.5, 5.8) mM"
same,"A1c (%), median (interquartile range)",Year 5,"6.2 (5.7, 6.8) %"
same,"FPG (mM), median (interquartile range)",Year 5,"5.1 (4.5, 6.0) mM"
same,"A1c (%), median (interquartile range)",Year 6,"6.3 (5.8, 6.8) %"
same,"FPG (mM), median (interquartile range)",Year 6,"5.2 (4.6, 6.1) mM"
same,"A1c (%), median (interquartile range)",Year 7,"6.2 (5.8, 7.1) %"
same,"FPG (mM), median (interquartile range)",Year 7,"5.2 (4.5, 6.3) mM"
same,increase in the likelihood of maintaining mean A1C below 6.5% for 5 years,allocation to basal insulin glargine vs standard care,2-3 fold
same,participants achieving a FPG level ≦5.2 mmol/l,"by 1 year, maintained throughout the trial",50%
same,participants achieving A1C <6.5%,"diabetic subgroup, 1 year, 47% before treatment",74%
same,participants achieving A1C <7.0%,"diabetic subgroup, 1 year, 66% before treatment",88%
same,participants achieving A1C <7.0%,"diabetic subgroup, 5 years",77%
same,participants achieving A1C <6.5%,"diabetic subgroup, after 5 years",60%
same,people achieving FPG levels below 5.3 mmol/l (95 mg/dl),for most of the trial,more than 50%
same,people achieving FPG levels ≦6.0 mmol/l (108 mg/dl),for most of the trial,75%
same,"OR (95% CI), 1-year A1C 6.5% (attainment)",[1],2.50 (2.29-2.74)
same,"OR (95% CI), 1-year A1C 7.0% (attainment)",[1],2.735 (2.440-3.067)
same,"OR (95% CI), 5-year mean A1C 6.5% (maintenance)",[1],2.98
same,"OR (95% CI), 5-year mean A1C 7.0% (maintenance)",[1],2.408 (2.122-2.732)
same,"OR (95% CI), 5-year mean A1C 6.5% (maintenance)","fully adjusted logistic regression, glargine vs standard care, p<0.001, listed as Glargine",2.975 (2.671-3.315)
same,median A1C (inter-quartile range),"participants with diabetes, 1 year, baseline 6.5",6.0 (5.5-6.5) %
same,median FPG (inter-quartile range),"participants with diabetes, 1 year, baseline 7.2",5.2 (4.6-5.9) mmol/l
same,median A1C (inter-quartile range),[2],6.0 (5.6-6.6) %
same,median FPG (inter-quartile range),[2],5.0 (4.4-5.8) mmol/l
same,median A1C (inter-quartile range),[3],6.3 (5.8-6.9) %
same,median FPG (inter-quartile range),[3],5.1 (4.5-6.1) mmol/l
same,median A1C (inter-quartile range),[4],6.3 (5.8-6.9) %
same,median FPG (inter-quartile range),[4],5.3 (4.5-6.4) mmol/l
same,median A1C,"participants without diabetes, 1 year, baseline 5.7",5.6%
same,median FPG (inter-quartile range),"participants without diabetes, 1 year, baseline 6.1",5.0 (4.5-5.5) mmol/l
same,median FPG (inter-quartile range),"participants without diabetes, 2 years",4.9 (4.5-5.5) mmol/l
same,median A1C,[5],5.8%
same,median FPG (inter-quartile range),[5],5.0 (4.5-5.7) mmol/l
same,median FPG (inter-quartile range),"participants without diabetes, 7 years",5.1 (4.5-5.8) mmol/l
same,participants achieving A1C <6.5%,[6],more than 75%
same,participants achieving A1C <7.0%,[6],more than 90%
